A short description of the data set: solvent given as SMILES.
Where [1] appears, read: in c1cc(-n2c3ccccc3c3ccccc32)cc(-n2c3ccccc3c3ccccc32)c1.

The structures appear in SMILES notation.

On to `CS1(C)C(/C=C/C2=C(c3ccc(C(=O)O)cc3)C(=C/C=C3/N(CCCCS(=O)(=O)[O-])c4ccccc4S3(C)C)/CCC2)=[N+](CCCCS(=O)(=O)[O-])c2ccccc21`, for which the fluorescence lifetime is 1.08 ns (in CC(C)=O); 0.93 ns (in CCO); 0.72 ns (in CO); 1.26 ns (in CS(C)=O); 1.31 ns (in ClC(Cl)Cl); 1.19 ns (in ClCCl). Besides, the fluorescence lifetime (in O) came to 0.33 ns.

The compound `Cc1cc(=O)oc2ccc3ccc(O)cc3c12` came in with a fluorescence lifetime (in CC#N) of 5.6 ns.

Consider `c1ccc2c(-c3ccc4sc5ccc(-c6c7ccccc7cc7ccccc67)cc5c4c3)c3ccccc3cc2c1`, for which the fluorescence lifetime stood at 3.9 ns (in C1CCCCC1), 4.3 ns (in CC#N) and 4.7 ns (in ClCCl).

`CCCCCCCCCCn1nnc(-c2ccc(C#Cc3ccc(C#Cc4ccc(-c5nnn(CCCCCCCCCC)n5)cc4)c4nc5c6ccccc6c6ccccc6c5nc34)cc2)n1`: the fluorescence lifetime came out at 3.66 ns (in C1CCOC1), 2.52 ns (in Cc1ccccc1) and 4.8 ns (in ClCCl).

For `COc1ccc(-c2c(-c3ccc(OC)cc3)c3c4c(cccc4c2-c2ccccc2)C(=O)c2ccccc2-3)cc1`, the fluorescence lifetime by setting is: (in CC#N) 2.3 ns; (in CO) 0.8 ns.

On to `C/C(=N\Nc1ccc(C#N)cc1)c1ccccn1`, for which, for the setting “in CO”, the fluorescence lifetime worked out at 1.69 ns.

`CC1(C)c2ccccc2N(c2ccccc2)c2ccc(-c3ccc(-c4ccc5c(c4)C(C)(C)c4ccccc4N5c4ccccc4)c4nsnc34)cc21` displayed a fluorescence lifetime (in c1ccc2c(c1)c1ccccc1n2-c1ccc(-c2ccc(-n3c4ccccc4c4ccccc43)cc2)cc1) of 7.2 ns.

The compound `Nc1ccccc1/C=C/C(F)(F)F` registered a fluorescence lifetime (in C1CCOC1) of 7.32 ns.

Consider `CC(C)c1cc(C(C)C)c(B2c3cc(-n4c5ccc(C(C)(C)C)cc5c5cc(C(C)(C)C)ccc54)ccc3N(c3ccccc3)c3ccc(-n4c5ccc(C(C)(C)C)cc5c5cc(C(C)(C)C)ccc54)cc32)c(C(C)C)c1`, for which the fluorescence lifetime (in c1cc(-c2cccc(-n3c4ccccc4c4ccccc43)c2)cc(-n2c3ccccc3c3ccccc32)c1) was 15 ns.

In the case of `Nc1ccc2c(-c3ccc(C(=O)CN4C(=O)CCC4=O)cc3C(=O)[O-])c3ccc(=[NH2+])c(S(=O)(=O)[O-])c-3oc2c1S(=O)(=O)[O-]`, the fluorescence lifetime (in O) was 4.1 ns.

With `O=Cc1ccc2c(c1)c1ccccc1n2-c1ccc(-c2ccc(-n3c4ccccc4c4cc(C=O)ccc43)cc2)cc1`, the fluorescence lifetime (in ClCCl) was found to be 1 ns.

Consider `CC\C=C/C=C/C=C/C=C\CCCCCCCC(=O)O`, for which the fluorescence lifetime is 3.2 ns (in C1COCCO1); 4.5 ns (in CCCCCC); 5.2 ns (in CCCCCCCCCC); 2.5 ns (in CCCCO); 5.1 ns (in CCOCC); 1.3 ns (in CO). The compound further came in with a fluorescence lifetime (in ClC(Cl)Cl) of 1.5 ns.

On to `CCCCn1c2ccc(C#N)cc2c2cc(C#N)cc(-c3ccc(N(c4ccccc4)c4ccccc4)cc3)c21`, for which the fluorescence lifetime (in ClCCl) stood at 1.91 ns.

With `C[Si](C)(C)O[Si]1(O[Si](C)(C)C)n2c3c4ccccc4c2/N=C2N=C(/N=c4/c5ccccc5/c(n41)=N/C1=NC(=N\3)/c3ccccc31)c1ccccc1\2`, where the note is “in CN(C)C=O”, the fluorescence lifetime is 5.57 ns.

For the setting “in CC#N”, `COc1ccc(/C=C/c2ccccc2)cc1OC` registered a fluorescence lifetime of 0.5 ns.

`CC(C)c1cc(C(C)C)c(B2c3ccccc3Oc3cc(N4c5ccccc5C5(c6ccccc6-c6ccccc65)c5ccccc54)ccc32)c(C(C)C)c1` displayed a fluorescence lifetime (in Cc1ccccc1) of 28 ns.

Regarding `CCCCCCN1C(=O)c2cccc3c(-c4ccc(-c5cccs5)s4)ccc(c23)C1=O`, the fluorescence lifetime (in ClC(Cl)Cl) turned out to be 0.564 ns.

In the case of `c1ccc(-c2nc(-c3ccccc3)c(-c3ccccc3)o2)cc1`, the fluorescence lifetime (in Cc1ccccc1) amounted to 1.27 ns.

With `COCCOCCOCCOCC(COCCOCCOCCOC)Oc1cc(/C=C/c2ccc(/C=C(\C#N)c3ccncc3)cc2)c(OC(COCCOCCOCCOC)COCCOCCOCCOC)cc1/C=C/c1ccc(/C=C(\C#N)c2ccncc2)cc1`, for the setting “in ClCCl”, the fluorescence lifetime was 1.7 ns.

Compound `Cc1cc(C)c(B(c2c(C)cc(C)cc2C)c2cc3ccc4ccccc4c3c3c2cc(N(C)C)c2ccccc23)c(C)c1` registered a fluorescence lifetime (in C1CCCCC1) of 8.8 ns.

As to `CSc1ccc2c(c1)N(CCCN1CCN(C)CN1C)c1ccccc1S2`, the fluorescence lifetime (in CC#N) is 1.03 ns, the fluorescence lifetime (in CO) was determined as 0.96 ns and the fluorescence lifetime (in O) turned out to be 1.47 ns.

Compound `CC(C)(C)c1ccc2c(c1)c1cc(C(C)(C)C)ccc1n2-c1ccc(C#Cc2ccc3c4ccc(C#Cc5ccc(C=O)cc5)cc4n(-c4ccc(C(F)(F)F)cc4)c3c2)cc1` displayed a fluorescence lifetime (in ClCCl) of 0.84 ns.

`COc1cc(OC)cc(C2=[O+][B-](F)(F)OC(c3ccccc3)=C2)c1`: where the note is “in ClCCl”, the fluorescence lifetime worked out at 6.87 ns.

As for `c1ccc2c(c1)Nc1ccccc1B2c1c2ccccc2cc2ccccc12`, the fluorescence lifetime (in ClCCl) stood at 16.8 ns.

For the compound `CCC1=C(C)C2=Cc3cc(I)cn3[B-](F)(F)[N+]2=C1C`, the fluorescence lifetime (in C1CCCCC1) was determined as 0.489 ns; the fluorescence lifetime (in CC(C)=O) stood at 0.317 ns; the fluorescence lifetime (in CCO) was 0.349 ns; the fluorescence lifetime (in CCOC(C)=O) came out at 0.362 ns; the fluorescence lifetime (in CO) was found to be 0.324 ns; the fluorescence lifetime (in OCC(F)(F)F) is 0.308 ns.

Turning to `O=S1(=O)c2ccc(-c3c4ccccc4cc4ccccc34)cc2-c2cc(-c3c4ccccc4cc4ccccc34)ccc21`, the fluorescence lifetime runs as follows: (in C1CCCCC1) 3.2 ns; (in CC#N) 4.3 ns; (in ClCCl) 3.7 ns.

As for `COc1ccc(C2=CC(c3ccc4cc(N(C)C)ccc4c3)=[O+][B-](F)(F)O2)cc1`, the fluorescence lifetime (in C1CCOC1) was found to be 2.68 ns; the fluorescence lifetime (in CC#N) stood at 0.42 ns; the fluorescence lifetime (in CC(C)=O) is 0.72 ns; the fluorescence lifetime (in CS(C)=O) turned out to be 0.54 ns; the fluorescence lifetime (in Cc1ccccc1) is 2.96 ns; the fluorescence lifetime (in ClC(Cl)Cl) was found to be 3.54 ns. Moreover, for the setting “in ClCCl”, the fluorescence lifetime turned out to be 2.71 ns.

Consider `CC1(C)C(=O)C=Cc2ccc(N3CCC3)cc21`, for which the fluorescence lifetime (in O) is 3.83 ns.

Consider `CCn1c2sccc2c2c3nsnc3c3c4ccsc4n(CC)c3c21`, for which the fluorescence lifetime runs as follows: (in C1CCOC1) 15 ns; (in CCOC(C)=O) 15.6 ns; (in CN(C)C=O) 16.8 ns; (in Cc1ccccc1) 13 ns; (in ClCCl) 14.6 ns.

For the compound `Nc1ccc2c(c1)C(=O)c1ccccc1-2`, the fluorescence lifetime worked out at 4 ns (in C1CCCCC1) and 0.84 ns (in c1ccccc1).

As to `O=C([O-])c1cc2c(ccc3ccccc32)oc1=O`, for the setting “in O”, the fluorescence lifetime was 12.8 ns.

Consider `C(=C\c1ccc(-c2ccc(/C=C/c3ccc(-n4c5ccccc5c5ccccc54)cc3)s2)s1)/c1ccc(-n2c3ccccc3c3ccccc32)cc1`, for which the fluorescence lifetime came out at 1.06 ns (in C1CCOC1); 1.08 ns (in CC#N); 1.08 ns (in CC(C)=O); 1.08 ns (in CN(C)C=O); 1.05 ns (in Cc1ccccc1).

Under setting [1], `CC(C)(C)c1ccc2c(c1)c1cc(C(C)(C)C)ccc1n2-c1ccccc1-c1nccnc1C#N` displayed a fluorescence lifetime of 9.7 ns.

Regarding `COc1ccc(C2=CC(c3ccc(OC)cc3)=[O+][B-](C(C)=O)(C(C)=O)O2)cc1`, the fluorescence lifetime is, setting by setting: (in CC#N) 2.1 ns; (in ClC(Cl)(Cl)Cl) 2.1 ns.

On to `Cc1ccsc1-c1ccc(-c2ccc(-c3sccc3C)s2)s1`, for which the fluorescence lifetime (in CCC(C)C) stood at 0.43 ns.

On to `CCC12C(=C3C(=C4c5ccc(-c6ccc(C(C)=O)s6)cc5S(=O)(=O)C41CC)C(F)(F)C(F)(F)C3(F)F)c1ccc(-c3ccc(C(C)=O)s3)cc1S2(=O)=O` (stereo unspecified), for which the fluorescence lifetime (in C1COCCO1) was found to be 1.9 ns.

In the case of `CC1=C(c2ccccc2)C(C)=[N+]2C1=C(c1c(-c3ccccn3)nc3ccccn13)c1c(C)cc(C)n1[B-]2(F)F`, the fluorescence lifetime (in ClCCl) came to 6.2 ns.

For `O=S(=O)(c1ccc(N2c3ccccc3[Si](c3ccccc3)(c3ccccc3)c3ccccc32)cc1)c1ccc(N2c3ccccc3[Si](c3ccccc3)(c3ccccc3)c3ccccc32)cc1`, the fluorescence lifetime under setting [1] came to 4 ns.

For the compound `CC(=O)OC[C@@H]1O[C@H](n2cnc3c2N=CN2Cc4c[n+](C)c(C)nc4N=C32)[C@@H](O)[C@H]1O`, the fluorescence lifetime came to 3.5 ns (in CC#N), 3.24 ns (in CCO) and 3.28 ns (in O).

`c1cc2cc(c1)c1ccc3ccc4ccc(cc4c3c1)c1ccc3ccc4ccc(cc4c3c1)c1cccc2c1` showed a fluorescence lifetime (in Cc1ccccc1) of 4.7 ns.

The compound `CCCCCCN1C(=O)c2cccc3cc(/N=C\c4cnc5ccccc5c4)cc(c23)C1=O` had a fluorescence lifetime (in ClC(Cl)Cl) of 13.7 ns.

Under “in ClC(Cl)Cl”, `Cc1ccc(N(c2ccc(C)cc2)c2ccc(-c3ccc(C=C(C#N)C#N)cc3)cc2)cc1` displayed a fluorescence lifetime of 1.06 ns.

As for `O=C1NC(=O)c2ccc(N3CCOCC3)c3cccc1c23`, the fluorescence lifetime reads like this: (in C1CCOC1) 8.38 ns; (in ClC(Cl)Cl) 8.65 ns; (in ClCCl) 8.38 ns.

For the compound `Cn1c(=O)c(/N=N/c2ccc(S(=O)(=O)O)c3ccccc23)c(O)c2ccccc21`, for the setting “in CS(C)=O”, the fluorescence lifetime came to 0.05 ns.

Take `C(=C\c1ccc(N(c2ccc(/C=C/c3ccc(N(c4ccccc4)c4ccccc4)cc3)cc2)c2ccc(/C=C/c3ccc(/C=C/c4ccc(N(c5ccc(/C=C/c6ccc(N(c7ccccc7)c7ccccc7)cc6)cc5)c5ccc(/C=C/c6ccc(N(c7ccccc7)c7ccccc7)cc6)cc5)cc4)c4nsnc34)cc2)cc1)/c1ccc(N(c2ccccc2)c2ccccc2)cc1`: the fluorescence lifetime runs as follows: (in C1CCOC1) 1.83 ns; (in CCOC(C)=O) 1.85 ns; (in Cc1ccccc1) 3.61 ns; (in ClC(Cl)Cl) 2.08 ns; (in ClCCl) 1.86 ns.

`O=Cc1ccc2ccc3cccc4ccc1c2c34`: the fluorescence lifetime reads like this: (in C1CCOC1) 127 ns; (in CC#N) 8.76 ns; (in CCCCCC) 7.43 ns; (in CCO) 6.44 ns; (in CN(C)C=O) 64.8 ns; (in CO) 0.953 ns. In addition, the fluorescence lifetime turned out to be 15.3 ns (in Cc1ccccc1) and 3.45 ns (in ClCCl).

With `c1ccc2c(-c3cncnc3)c3ccccc3c(-c3cncnc3)c2c1`, the fluorescence lifetime by setting is: (in CCO) 6.4 ns; (in ClCCl) 7.2 ns.

For the compound `O=P1(c2ccccc2)c2ccccc2-c2sc3ccccc3c21` (stereo unspecified), for the setting “in ClCCl”, the fluorescence lifetime came out at 11.3 ns.
